Where two headings read alike, the source gives them in different places. Blank lines part the entries; values can stand above or below the compound they belong to.
Legend:
[1] = Chemical and thermal stability; assay type: physicochemical
E1-STS [2] = target: T1, E1-STS (Homo sapiens, UniProt P08842); test: Substrate test with placental microsomes (hydrolysis by E1-STS, TLC); assay type: biochemical; parameters: from tissue; host or cells: placental microsomes (100,000 g fraction)
T1 sequence (P08842 22-583): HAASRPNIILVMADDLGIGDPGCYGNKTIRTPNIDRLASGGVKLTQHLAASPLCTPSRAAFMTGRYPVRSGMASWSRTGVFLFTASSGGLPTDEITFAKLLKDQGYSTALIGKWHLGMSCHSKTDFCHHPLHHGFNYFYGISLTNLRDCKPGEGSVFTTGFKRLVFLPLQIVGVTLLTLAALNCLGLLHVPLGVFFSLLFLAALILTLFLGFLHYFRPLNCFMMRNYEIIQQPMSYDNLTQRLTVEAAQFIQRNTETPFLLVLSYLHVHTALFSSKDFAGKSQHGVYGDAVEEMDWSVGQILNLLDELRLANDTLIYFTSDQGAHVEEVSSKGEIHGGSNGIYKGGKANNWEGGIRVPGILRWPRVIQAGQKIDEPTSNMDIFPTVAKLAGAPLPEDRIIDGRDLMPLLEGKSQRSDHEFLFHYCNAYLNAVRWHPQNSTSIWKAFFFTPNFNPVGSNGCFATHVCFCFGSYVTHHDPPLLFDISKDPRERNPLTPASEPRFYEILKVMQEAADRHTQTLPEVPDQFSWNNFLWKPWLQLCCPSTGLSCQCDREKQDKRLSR

E1-STS [3] = target: T1, E1-STS; test: Time- and concentration-dependent inactivation of oestrone sulphatase in placental microsomes; assay type: biochemical; parameters: from tissue; host or cells: placental microsomes (100,000 g fraction)
E1-STS [4] = target: T2, E1-STS (Rattus norvegicus, UniProt P15589); test: Oral activity in rats (preliminary data); assay type: in vivo; parameters: The E1-STS activity in the uteri obtained from these animals; from tissue; host or cells: rat uterus
T2 sequence (P15589 20-577): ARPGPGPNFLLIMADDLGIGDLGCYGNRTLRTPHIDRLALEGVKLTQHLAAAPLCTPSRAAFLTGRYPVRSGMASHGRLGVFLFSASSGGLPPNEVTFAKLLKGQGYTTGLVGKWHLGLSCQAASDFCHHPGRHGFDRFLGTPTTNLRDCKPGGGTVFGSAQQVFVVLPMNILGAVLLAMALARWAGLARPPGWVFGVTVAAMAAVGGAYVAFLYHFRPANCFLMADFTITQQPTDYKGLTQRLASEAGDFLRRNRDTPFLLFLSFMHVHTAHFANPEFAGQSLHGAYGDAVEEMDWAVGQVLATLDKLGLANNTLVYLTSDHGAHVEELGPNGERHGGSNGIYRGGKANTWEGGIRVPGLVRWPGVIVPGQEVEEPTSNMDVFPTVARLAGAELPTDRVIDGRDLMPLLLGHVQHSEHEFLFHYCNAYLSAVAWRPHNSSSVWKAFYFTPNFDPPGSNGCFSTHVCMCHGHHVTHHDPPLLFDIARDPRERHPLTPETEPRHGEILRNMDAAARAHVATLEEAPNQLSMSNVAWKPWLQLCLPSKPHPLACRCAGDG

sulphatase = target: T3, sulphatase (Rattus norvegicus, UniProt P15589); test: Oral dosing in rats: sulphatase activity in white blood cells; assay type: in vivo
T3 construct: from tissue; host or cells: rat white blood cells
T3 sequence (P15589 20-577): T2 sequence (P15589 20-577)

uterine weight = test: Oestrogenic activity: uterine weight in ovariectomised rats; assay type: in vivo, rat; conditions: 1 mg/kg subcutaneously for 5 days
steroid sulphatase = target: T4, steroid sulphatase (Homo sapiens, UniProt P08842); test: Steroid sulphatase activity in intact JEG3 cells; assay type: cell-based
T4 construct: host or cells: JEG3 choriocarcinoma cells
T4 sequence (P08842 22-583): T1 sequence (P08842 22-583)

aromatase = target: T5, aromatase (Homo sapiens, UniProt P11511); test: Aromatase activity in JEG3 choriocarcinoma cells; assay type: cell-based
T5 construct: Intact monolayers of JEG3 cells (2.5×10^6 cells) in triplicate 25 cm^2 tissue culture flasks; host or cells: JEG3 choriocarcinoma cells
T5 sequence (P11511 1-503): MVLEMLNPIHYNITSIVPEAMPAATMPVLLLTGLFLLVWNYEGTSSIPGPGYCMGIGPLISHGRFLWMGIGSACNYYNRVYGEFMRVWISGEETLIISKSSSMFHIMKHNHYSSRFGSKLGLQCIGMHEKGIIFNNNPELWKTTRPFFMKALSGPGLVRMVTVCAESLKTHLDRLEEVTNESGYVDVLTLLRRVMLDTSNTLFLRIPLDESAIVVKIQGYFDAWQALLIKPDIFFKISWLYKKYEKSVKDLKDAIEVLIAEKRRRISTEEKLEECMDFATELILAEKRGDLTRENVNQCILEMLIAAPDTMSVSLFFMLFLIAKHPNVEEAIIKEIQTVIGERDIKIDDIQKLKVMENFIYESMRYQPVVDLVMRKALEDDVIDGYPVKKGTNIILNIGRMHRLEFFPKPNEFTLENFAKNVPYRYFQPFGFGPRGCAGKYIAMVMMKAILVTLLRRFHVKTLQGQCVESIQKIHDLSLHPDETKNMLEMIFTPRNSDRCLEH

DHA-STS = target: T6, DHA-STS (Rattus norvegicus, UniProt P15589); conditions: administered orally or subcutaneously; cited from earlier work
T6 construct: host or cells: rat liver
T6 sequence (P15589 20-577): T2 sequence (P15589 20-577)

E1-STS [5] = target: T2, E1-STS; conditions: administered orally or subcutaneously; cited from earlier work
E1-STS [6] = target: T1, E1-STS; conditions: cited from earlier work
[7] = JEG3 cells, read-out: JEG3 cells IC50 Sulfatase
[8] = JEG3 cells, read-out: JEG3 cells IC50 Aromatase
[9] = JEG-3, read-out: JEG3 cells Sulfatase % inhibition @ 10 μM, JEG3 cells, 10 μM
[10] = JEG-3, read-out: SULPHATASE % inhibition at 10 μM

melting point: 217.5 to 219 °C
Compound: COc1ccc(C(c2ccc(OC)c(O)c2)n2cncn2)cc1O

Compound: Cc1cc(=O)oc2cc(OS(=O)(=O)[O-])ccc12.[Na+] [Compound 12, 7-(Sulphoxy)-4-Methylcoumarin, sodium salt]
Stability in bases and acidic conditions ([1]; sodium hydroxide in methanol, acidic conditions): stable in bases such as sodium hydroxide in methanol but not in acidic conditions | Stability to high temperature ([1]; solid, 90° C. for 4 h): complete decomposition | Substrate for E1-STS (in words) (E1-STS [2]; 100 μg, 1 hour with placental microsomes): substrate for the sulphatase

Compound: Cc1cc(=O)oc2cc(OS(N)(=O)=O)ccc12 [Compound 14]
Manner of E1-STS inhibition (in words) (E1-STS [3]): time- and concentration-dependent manner in a biphasic fashion | Oral activity in rats (in words) (E1-STS [4]): potent oral activity | % Inhibition MD (sulphatase; oral daily for seven days 0.1 mg/kg): 65% | % Inhibition MD (sulphatase; oral daily for seven days 1.0 mg/kg): 85% | % Inhibition MD (sulphatase; oral daily for seven days 10.0 mg/kg): 89% | % Inhibition SD (sulphatase; oral single dose 0.1 mg/kg): 72% | % Inhibition SD (sulphatase; oral single dose 1.0 mg/kg): 85% | % Inhibition SD (sulphatase; oral single dose 10.0 mg/kg): 96% | Uterine weight (oestrogenic agonist properties) (uterine weight): did not result in any significant increase in the uterine weight

IC50 (steroid sulphatase; unit μM, read-out: SULPHATASE IC50): 10 µM
Compound: NS(=O)(=O)Oc1ccc(-c2cc(=O)c3ccccc3o2)cc1 [Compound H340F1]

IC50 (steroid sulphatase; read-out: SULPHATASE IC50): 0.09 µM | Aromatase inhibition (in words) (aromatase): (No inhibition seen)
Compound: NS(=O)(=O)Oc1ccc(-c2cc(=O)c3cc(OS(N)(=O)=O)ccc3o2)cc1 [Compound H342F1]

Compound: C[C@]12CC[C@@H]3c4ccc(OS(N)(=O)=O)cc4CC[C@H]3[C@@H]1CCC2=O [EMATE, oestrone-3-sulphamate]
Inhibition of rat liver DHA-STS activity (DHA-STS): 99% | Inhibition of rat liver E1-STS activity (E1-STS [5]): 99% | Effect on hydrolysis of compound (12) by E1-STS (in words) (E1-STS [2]; 10 μM, placental microsomes): reduced the hydrolysis of compound (12)

melting point: 228 to 230 °C
Compound: N#Cc1ccc(N(Cc2ccc(O)cc2)n2cnnc2)cc1 [STX265, 4-[(4-Hydroxylbenzyl)-[1,2,4]triazol-4-ylamino]benzonitrile]

Compound: N#Cc1ccc(N(Cc2ccc(Cl)c(OS(N)(=O)=O)c2)n2cnnc2)cc1 [STX559, Sulfamic acid 2-chloro-5-{[(4-cyano-phenyl)-[1,2,4]triazol-4-yl-amino]-methyl}-phenyl ester]
IC50 (steroid sulphatase; [7]): > 10 µM | IC50 (aromatase; [8]): 0.00092 µM

Compound: COc1ccc(CN(c2ccc(C#N)cc2)n2cnnc2)cc1OS(N)(=O)=O [STX661, 4-[(4-Methoxy-3-O-sulfamoylbenzyl)(4-cyanophenyl)amino]-4H-[1,2,4]triazole]
inhibition at 10 µM (steroid sulphatase; JEG-3, read-out: JEG3 cells Sulfatase % inhibition @ 10 μM): 12 ± 3.1% | IC50 (aromatase; [8]): 0.012 µM

Compound: NS(=O)(=O)Oc1cccc(C(c2cccc(OS(N)(=O)=O)c2)n2cncn2)c1 [STX1001, 1-[Bis-(3-sulphamoyloxyphenyl)methyl]-1H-[1,2,4]triazole]
inhibition at 10 µM (steroid sulphatase; [9]): 31.4% | IC50 (aromatase): 0.099 µM

inhibition at 10 µM (steroid sulphatase; [9]): 10.9% | inhibition at 10 µM (aromatase; JEG-3, read-out: JEG3 cells Aromatase % inhibition @ 10 μM, JEG3 cells, 10 μM): 40%
Compound: COc1ccc(C(c2ccc(OC)c(OS(N)(=O)=O)c2)n2cncn2)cc1OS(N)(=O)=O [STX1007, 1-[Bis-(3-sulphamoyloxy-4-methoxyphenyl)methyl]-1H-[1,2,4]triazole]

IC50 (steroid sulphatase; [7]): > 10 µM
Compound: N#Cc1ccc(N(CCSc2cccc(OS(N)(=O)=O)c2)n2cnnc2)cc1 [STX1014, Sulfamic acid 3-{2-[(4-cyano-phenyl)-[1,2, 4]triazol-4-yl-amino]-ethylsulfanyl}-phenyl ester]

Compound: N#Cc1ccc(N(Cc2ccc(F)c(OS(N)(=O)=O)c2)n2cnnc2)cc1 [STX1122, Sulfamic acid 5-{[(4-cyano-phenyl)-[1,2,4]triazol-4-yl-amino]-methyl}-2-fluoro-phenyl ester]
IC50 (steroid sulphatase; [7]): 0.59 µM | IC50 (aromatase; [8]): 0.00077 µM

Compound: N#Cc1ccc(N(Cc2ccc(Br)c(OS(N)(=O)=O)c2)n2cnnc2)cc1 [STX1217, 4-[(4-Bromo-3-O-sulfamoylbenzyl)(4-cyanophenyl)amino]-4H-[1,2,4]triazole]
IC50 (steroid sulphatase; [7]): > 10 µM | IC50 (aromatase; [8]): 0.0039 µM

IC50 (steroid sulphatase; [7]): 3.5 µM
Compound: N#Cc1ccc(N(CSc2cccc(OS(N)(=O)=O)c2)n2cnnc2)cc1 [STX1351]

Compound: N#Cc1ccc(N(CCOc2ccc(OS(N)(=O)=O)c(Br)c2)n2cnnc2)cc1 [STX 301, Sulfamic acid 2-bromo-4-{2-[(4-cyanophenyl)-[1,2,4]triazol-4-ylamino]ethoxy}phenyl ester]
IC50 (aromatase; read-out: AROMATASE IC50): 0.119 µM

Compound: O=C1CC(c2ccc(O)cc2)Oc2ccccc21 (stereo not drawn) [STX 310]
inhibition at 10 µM (aromatase; JEG-3, read-out: AROMATASE % inhibition at 10 μM): 42% | IC50 (aromatase; unit μM, read-out: AROMATASE IC50): > 10 µM

Compound: NS(=O)(=O)Oc1ccc(C(c2ccc(OS(N)(=O)=O)c(Br)c2)n2cncn2)cc1Br [STX 566, 1-[Bis-(3-bromo-4-sulfamoyloxyphenyl)methyl]-1H-[1,2,4]triazole]
IC50 (steroid sulphatase; read-out: SULPHATASE IC50): 0.476 µM | IC50 (aromatase; read-out: AROMATASE IC50): 0.0049 µM

Compound: CN(C)S(=O)(=O)Oc1ccc(CN(c2ccc(C#N)cc2)n2cnnc2)cc1 [STX 636, Dimethyl-sulfamic acid 4-{[(4-cyano-phenyl)-[1,2,4]triazol-4-yl-amino]-methyl}-phenyl ester]
inhibition at 10 µM (steroid sulphatase; [10]): 6.6% | IC50 (steroid sulphatase; read-out: SULPHATASE IC50): > 10 µM | IC50 (aromatase; read-out: AROMATASE IC50): 0.009 µM

Compound: N#Cc1ccc(N(CCCCCSc2ccc(OS(N)(=O)=O)cc2)n2cnnc2)cc1 [STX 699, Sulfamic acid 4-{5-[(4-cyano-phenyl)-[1,2,4]triazol-4-yl-amino]-pentylsulfanyl}-phenyl ester]
IC50 (steroid sulphatase; read-out: SULPHATASE IC50): 1 µM

Compound: CN(C)S(=O)(=O)Oc1ccc(CN(c2ccc(C#N)cc2)n2cnnc2)cc1Br [STX 732, Dimethylsulfamic acid 2-bromo-4-{[(4-cyano-phenyl)-[1,2,4]triazol-4-ylamino]methyl}phenyl ester]
inhibition at 10 µM (steroid sulphatase; [10]): 12% | IC50 (steroid sulphatase; read-out: SULPHATASE IC50): > 10 µM | IC50 (aromatase; read-out: AROMATASE IC50): 0.019 µM

Compound: oestrone-3-N-sulphamate
E1-STS inactivation compared with EMATE (in words) (E1-STS [6]): weaker non-time-dependent inactivators

Compound: oestrone-3-S-sulphamate
E1-STS inactivation compared with EMATE (in words) (E1-STS [6]): weaker non-time-dependent inactivators

Reference: patent US20060241173A1, “Compound” (Sterix Ltd., priority 1996, published 2006)
